The values that follow come from ChEMBL document CHEMBL1139739, “Inhibition of Tpl2 kinase and TNFalpha production with quinoline-3-carbonitriles for the treatment of rheumatoid arthritis” (Bioorg Med Chem Lett, 2006).

pIC50: −log10 of the molar value. The source made the active and inactive calls. The rule behind the calls is not given here.

Assay [1] has as its target Mitogen-activated protein kinase kinase kinase 8 (Homo sapiens, UniProt P41279). The experiment in a line: Inhibition of Tpl2 kinase by ELISA. For orientation: An ELISA detects its analyte on a solid surface through an enzyme-linked reagent.
For assay [2], the system named is Mus musculus. The experiment in a line: Inhibition of LPS/D-gal-induced TNFalpha production in C57B1/6 mouse at 50 mg/kg, ip. The conditions noted are these: C57B1/6, ip, route intraperitoneal. Type of assay: functional.
The subject of a further assay is Blood. The experiment in a line: Inhibition of LPS-induced TNFalpha production in human whole blood by ELISA. It counts as functional.
In assay [3] the test system is Monocyte. The experiment in a line: Inhibition of LPS-induced TNFalpha production in human monocytes by ELISA. It counts as functional.
Assay [4] concerns Monocyte. The experiment in a line: Inhibition of IkappaBalpha phosphorylation in LPS-treated human monocytes. Type of assay: functional.
Assay [5] relates to Mus musculus. The experiment in a line: Inhibition of LPS/D-gal-induced TNFalpha production in C57B1/6 mouse at 25 mg/kg, ip. The conditions noted are these: C57B1/6, ip, route intraperitoneal. Type of assay: functional.
The test system of assay [6] is Monocyte. The experiment in a line: Inhibition of MK2 phosphorylation in LPS-treated human monocytes. Type of assay: functional.
The target in assay [7] is Protein kinase C (PKC) (Homo sapiens) (UniProt O94806+P41743+P17252+P05129+Q05655+P05771+Q05513+Q02156+P24723+Q15139+Q04759). The experiment in a line: Inhibition of PKC. It counts as protein assay.
In assay [8] the target is MAP kinase-activated protein kinase 2 (Homo sapiens) (UniProt P49137). The experiment in a line: Inhibition of MK2.
MAP kinase-activated protein kinase 2 (Homo sapiens), sequence (P49137 whole entry, looked up): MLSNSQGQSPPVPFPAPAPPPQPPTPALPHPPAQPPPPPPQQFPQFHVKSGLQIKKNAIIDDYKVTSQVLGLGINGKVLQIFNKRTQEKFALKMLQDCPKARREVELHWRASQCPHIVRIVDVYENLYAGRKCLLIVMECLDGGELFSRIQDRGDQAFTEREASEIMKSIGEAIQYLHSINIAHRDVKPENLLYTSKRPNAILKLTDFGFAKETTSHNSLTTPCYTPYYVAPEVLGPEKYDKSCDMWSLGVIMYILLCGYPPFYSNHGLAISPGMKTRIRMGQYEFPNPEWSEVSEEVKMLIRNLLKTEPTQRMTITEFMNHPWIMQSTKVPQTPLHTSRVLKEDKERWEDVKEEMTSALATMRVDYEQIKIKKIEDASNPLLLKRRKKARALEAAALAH
The target of assay [9] is Proto-oncogene tyrosine-protein kinase Src (Homo sapiens) (UniProt P12931). The experiment in a line: Inhibition of Src kinase.
Proto-oncogene tyrosine-protein kinase Src (Homo sapiens), sequence (P12931 2-536 limits assumed): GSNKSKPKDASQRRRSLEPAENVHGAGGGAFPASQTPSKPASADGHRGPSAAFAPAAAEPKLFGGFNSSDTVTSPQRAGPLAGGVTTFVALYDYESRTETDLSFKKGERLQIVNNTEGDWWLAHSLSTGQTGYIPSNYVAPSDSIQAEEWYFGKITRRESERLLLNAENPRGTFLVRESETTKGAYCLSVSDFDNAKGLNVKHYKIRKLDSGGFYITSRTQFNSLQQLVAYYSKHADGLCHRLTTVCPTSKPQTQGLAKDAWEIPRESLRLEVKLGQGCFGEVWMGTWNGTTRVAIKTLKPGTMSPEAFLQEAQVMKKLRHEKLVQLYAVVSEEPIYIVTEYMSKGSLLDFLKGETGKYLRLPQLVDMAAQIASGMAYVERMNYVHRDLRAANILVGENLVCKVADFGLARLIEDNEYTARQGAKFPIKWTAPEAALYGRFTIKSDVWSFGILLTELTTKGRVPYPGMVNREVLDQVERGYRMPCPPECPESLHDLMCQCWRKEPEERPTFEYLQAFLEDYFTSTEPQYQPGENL
Assay [10] has as its target CaM kinase II (Homo sapiens) (UniProt Q13557+Q13555+Q13554+Q9UQM7). The experiment in a line: Inhibition of CAMK2. It counts as protein assay.
Assay [11] relates to Monocyte. The experiment in a line: Inhibition of cJun phosphorylation in LPS-treated human monocytes. Type of assay: functional.
Assay [12] relates to Monocyte. The experiment in a line: Inhibition of p38 kinase phosphorylation in LPS-treated human monocytes. Type of assay: functional.
Assay [13] concerns the target Dual specificity mitogen-activated protein kinase kinase 1 (Homo sapiens) (UniProt Q02750). The experiment in a line: Inhibition of MEK.
Assay [14] deals with Ribosomal protein S6 kinase beta-1 (Homo sapiens) (UniProt P23443). The experiment in a line: Inhibition of S6 kinase.
Ribosomal protein S6 kinase beta-1 (Homo sapiens), sequence (P23443 whole entry, looked up): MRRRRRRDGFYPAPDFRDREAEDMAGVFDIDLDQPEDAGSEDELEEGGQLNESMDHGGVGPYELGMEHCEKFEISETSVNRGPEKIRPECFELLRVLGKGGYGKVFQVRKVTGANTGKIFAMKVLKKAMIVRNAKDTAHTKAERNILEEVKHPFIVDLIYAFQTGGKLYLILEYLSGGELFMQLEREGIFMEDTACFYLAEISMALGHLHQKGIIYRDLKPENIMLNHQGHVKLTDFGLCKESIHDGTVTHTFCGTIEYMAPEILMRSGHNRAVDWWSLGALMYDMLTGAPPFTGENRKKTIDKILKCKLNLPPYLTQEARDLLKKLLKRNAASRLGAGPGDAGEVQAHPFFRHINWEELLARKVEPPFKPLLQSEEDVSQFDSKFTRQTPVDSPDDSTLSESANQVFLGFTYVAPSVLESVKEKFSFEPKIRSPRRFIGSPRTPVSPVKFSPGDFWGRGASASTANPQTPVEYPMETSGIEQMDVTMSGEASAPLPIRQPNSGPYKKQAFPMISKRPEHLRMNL

Mitogen-activated protein kinase kinase kinase 8, sequence (P41279 whole entry): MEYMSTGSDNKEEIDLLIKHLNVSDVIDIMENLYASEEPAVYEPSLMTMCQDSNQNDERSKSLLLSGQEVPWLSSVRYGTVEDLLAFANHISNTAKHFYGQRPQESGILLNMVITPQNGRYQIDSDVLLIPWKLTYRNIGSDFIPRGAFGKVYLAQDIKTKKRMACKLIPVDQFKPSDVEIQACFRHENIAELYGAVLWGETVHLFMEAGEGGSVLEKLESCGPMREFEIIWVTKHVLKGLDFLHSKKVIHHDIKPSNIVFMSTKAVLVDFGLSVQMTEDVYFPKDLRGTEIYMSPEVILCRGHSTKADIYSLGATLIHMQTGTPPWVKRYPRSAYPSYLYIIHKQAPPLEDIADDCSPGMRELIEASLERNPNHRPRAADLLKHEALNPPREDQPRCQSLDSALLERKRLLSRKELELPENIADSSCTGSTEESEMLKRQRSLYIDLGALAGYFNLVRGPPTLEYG
Dual specificity mitogen-activated protein kinase kinase 1 (Homo sapiens), sequence (Q02750 whole entry): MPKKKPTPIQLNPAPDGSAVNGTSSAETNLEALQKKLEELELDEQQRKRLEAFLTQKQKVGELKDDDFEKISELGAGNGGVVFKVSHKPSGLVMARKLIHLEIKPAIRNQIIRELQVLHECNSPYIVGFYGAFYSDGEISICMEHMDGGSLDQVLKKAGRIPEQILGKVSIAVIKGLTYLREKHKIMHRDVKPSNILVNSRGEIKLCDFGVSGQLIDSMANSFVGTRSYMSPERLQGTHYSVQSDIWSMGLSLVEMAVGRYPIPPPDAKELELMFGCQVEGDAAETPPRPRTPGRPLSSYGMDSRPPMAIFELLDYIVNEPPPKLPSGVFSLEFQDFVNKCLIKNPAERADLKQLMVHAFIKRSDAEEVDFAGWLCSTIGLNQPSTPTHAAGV

The pIC50 is the negative decadic logarithm of the IC50, by convention in mol/L. The low end stands for a high IC50, the high end for a low IC50. As to `N#Cc1cnc2cnc(NCc3ccccc3)cc2c1Nc1ccc(F)c(Cl)c1`, in assay [1], the pIC50 was 6.85.

As a reminder, the inhibition in vivo is the percentage by which the read-out fell short of the control. The low end stands for little suppression, the high end for strong suppression. `Cc1[nH]cnc1CNc1ccc2ncc(C#N)c(Nc3ccc(F)c(Cl)c3)c2c1` gave an inhibition in vivo at 50 mg/kg in the assay with Mus musculus [2] of 84%. In addition, the values for the inhibitory concentration in the assay with Blood and with Monocyte [3] were 7.9 µM and 0.4 µM, respectively. Moreover, the pIC50 in assay [1] is 8.52.

In [1], `CCc1ncc(CNc2ccc3ncc(C#N)c(Nc4ccc(F)c(Cl)c4)c3c2)[nH]1` had a pIC50 of 6.19.

Regarding `N#Cc1cnc2ccc(NCc3nccs3)cc2c1Nc1ccc(F)c(Cl)c1`, the inhibitory concentration is greater than 20 µM in the assay on Blood and 0.6 µM in the assay with Monocyte [3].

As to `N#Cc1c(Nc2ccc(F)c(Cl)c2)c2cc(NCc3cnc[nH]3)ccc2[nH]c1=O`, the pIC50 in [1] was less than 4.40.

For the compound `N#Cc1cnc2cc(OC(F)(F)F)c(NCc3cnc[nH]3)cc2c1Nc1ccc(F)c(Cl)c1`, in [1], the pIC50 is less than 4.40.

Consider `N#Cc1cnc2ccc(NCc3ccccc3)cc2c1Nc1ccc(F)c(Cl)c1`, for which the pIC50 in [1] was 6.68.

Compound `N#Cc1cnc2ccc(NCC3CCCN3)cc2c1Nc1ccc(F)c(Cl)c1` (stereo not drawn) had a pIC50 in assay [1] of 4.52.

The compound `N#Cc1cnc2ccc(Nc3ccccc3)cc2c1Nc1ccc(F)c(Cl)c1` showed a pIC50 in [1] of less than 4.40.

`CC(C)Oc1cc2ncc(C#N)c(Nc3ccc(F)c(Cl)c3)c2cc1NCc1cnc[nH]1`: the pIC50 in assay [1] is less than 4.40.

In turn, `N#Cc1cnc2ccc(NCCN3CCOCC3)cc2c1Sc1ccc(F)c(Cl)c1` had a pIC50 in assay [1] of less than 5.00.

In [1], `N#Cc1cnc2ccc(NCc3ccccn3)cc2c1Nc1ccc(F)c(Cl)c1` showed a pIC50 of 7.05.

The term IC50 denotes the concentration at which inhibition is half-maximal. A high value points to weaker potency in that assay. As for `N#Cc1cnc2ccc(NCc3c[nH]cn3)cc2c1Nc1ccc(F)c(Cl)c1`, the Inhibition in the assay with Monocyte [4] was greater than 5 µM; with Monocyte [6], greater than 5 µM; in [7] it was greater than 10 µM; in the assay on Monocyte [11], 5 µM; in the assay on Monocyte [12], 2.11 µM; in assay [14], greater than 10 µM. In the assay with Mus musculus [5], this compound had an inhibition in vivo at 25 mg/kg of 70%. Further, the inhibitory concentration in the assay on Blood stood at 3.3 µM; in the assay with Monocyte [3] it was 0.46 µM. In addition, the result in [8], in assay [9] and in assay [10] was inactive. This compound also yielded an IC50 in assay [13] of 2.4 µM.

Turning to `Cc1ncn(CCN2CCOCC2)c1CNc1ccc2ncc(C#N)c(Nc3ccc(F)c(Cl)c3)c2c1`, the inhibitory concentration with Blood was 13.2 µM; with Monocyte [3], 0.7 µM.

For `CCN1CCC[C@@H]1CNc1ccc2ncc(C#N)c(Nc3ccc(F)c(Cl)c3)c2c1`, in assay [1], the negative-log IC50 (pIC50) is 5.15.

Consider `N#Cc1cnc2ccc(NS(=O)(=O)c3ccccc3)cc2c1Nc1ccc(F)c(Cl)c1`, for which the pIC50 in assay [1] is 4.94.

On to `Cc1c(CNc2ccc3ncc(C#N)c(Nc4ccc(F)c(Cl)c4)c3c2)ncn1C`, for which the inhibitory concentration in the assay on Blood came out at 15.8 µM; with Monocyte [3], 0.4 µM. Moreover, the pIC50 in [1] was 8.52.

Compound `N#Cc1cnc2ccc(NCCN3CCOCC3)cc2c1Oc1ccc(F)c(Cl)c1` gave a pIC50 in assay [1] of less than 4.40.

Regarding `N#Cc1cccc(CNc2ccc3ncc(C#N)c(Nc4ccc(F)c(Cl)c4)c3c2)c1`, the pIC50 in assay [1] was 7.00.

In assay [1], `N#Cc1cnc2ccc(NCC3CCCO3)cc2c1Nc1ccc(F)c(Cl)c1` (stereo not drawn) showed a pIC50 of 5.66.

The compound `Cc1nc2ccc(NCc3cnc[nH]3)cc2c(Nc2ccc(F)c(Cl)c2)c1C#N` showed a pIC50 in [1] of 4.72.

Consider `N#Cc1cnc2ccc(NCc3ccc(S(N)(=O)=O)cc3)cc2c1Nc1ccc(F)c(Cl)c1`, for which, in assay [1], the pIC50 is 6.96.

On to `N#Cc1cnc2ccc(NCc3cccc[n+]3[O-])cc2c1Nc1ccc(F)c(Cl)c1`, for which 50 mg/kg produced 54% inhibition in vivo in the assay on Mus musculus [2]. Further, the inhibitory concentration with Blood amounted to 7.8 µM; in the assay with Monocyte [3] it was 1.7 µM. The compound further gave a pIC50 in [1] of 7.96.

In [1], `CC(Nc1ccc2ncc(C#N)c(Nc3ccc(F)c(Cl)c3)c2c1)c1ccccn1` (stereo not drawn) had a pIC50 of 7.22.

For the compound `N#Cc1cnc2ccc(CCc3ccccc3)cc2c1Nc1ccc(F)c(Cl)c1`, the pIC50 in assay [1] is less than 5.00.

Consider `CCN1CCC[C@H]1CNc1ccc2ncc(C#N)c(Nc3ccc(F)c(Cl)c3)c2c1`, for which the pIC50 in [1] was 6.74.
